Laboratory results as given in patent US6576254B1, “Polyamino acid vesicles” (University of Strathclyde, priority 1998, dated 2003).

Tested on: A549 cells
Assay: Transfection of A549 cells with POP:cholesterol vesicles complexed to pCMV-sport-β-gal plasmid (β-galactosidase activity, absorbance 420 nm)
Type: cell-based
Conditions: 50 μM chloroquine added during transfection with POP:cholesterol vesicle-plasmid complexes
Protocol: Transfection experiments were carried out with the endotoxin free pCMV-sport-β-gal plasmid. 96-well plates were seeded with A549 calls (10,000 cells well^−1, 50,000 cells mL^−1) and incubated overnight with DMEM/F10+10% foetal calf serum (FCS)-Life Sciences, UK in 2% CO2 at 37° C. […] The mixture was incubated for 4 h (2% CO2, 37° C.) after which the media and POP-plasmid complexes were removed and replaced with DMEM/F10+10% FCS (0.2 mL). Cells were fed daily (DMEM/F10+10% FCS) over a 48 h period at the end of which they were lysed by the addition of 0.05 mL triton X-100 buffer (0.1% triton X-100, 0.25M tris hydrochloride, pH=8.0). The cells were then frozen at −70° C. and thawed at room temperature and 0.5% bovine serum albumin in phosphate buffered saline (0.05 mL) added to each well. This was followed by the addition of 0.15 mL ONPG (o-nitrophenyl β-D-galactopyranoside) in buffer (0.06M sodium dibasic phosphate, 0.001M magnesium chloride, 0.01M potassium chloride, 0.05M β-mercaptoethanol, pH=8.0). β-galactosidase activity was estimated by measuring the absorbance (420 nm) on a microtitre plate reader.

Structure (SMILES): CCN(CC)CCCC(C)Nc1ccnc2cc(Cl)ccc12 (stereo not shown) [chloroquine]
- Effect on transfection levels: increase transfection levels
